According to US20250295725A1, “BONE TARGETED TREATMENT IN OSTEOGENESIS IMPERFECTA” (PURDUE RESEARCH FOUNDATION, priority 2022, published 2025):

Legend:
Assay type in all cases: in vivo
[1] = tested on: Colla2^oim mouse model of type 1(+/−) OI; experiment: Fracture callus mineralization by MicroCT after stabilized midshaft femur fracture (osteotomy), type 1 OI mice
Method: (§1) After reaching skeletal maturity, 12 weeks old female mice underwent a stabilized midshaft femur fracture model via an osteotomy. Type 1 and Type 3 OI mice were treated twice a week for 5 weeks and 6 weeks respectively post fracture. Fracture callus mineralization was evaluated via quantification of high resolution MicroCT(scanco) images of the fracture callus.
After reaching skeletal maturity, 12 weeks old mice underwent a stabilized midshaft femur fracture model via an osteotomy. Type 1 OI mice were treated daily subcutaneously for 5 weeks post fracture. Fracture callus mineralization was evaluated via quantification of high resolution MicroCT(scanco) images of the fracture callus. In some instances, mice were dosed (daily) with 38 nmol/kg/d of Compound 4, Compound 3, or PBS vehicle control.
as §1, with “maturity” for “maturity,”, “old” for “old female”, “1” for “1 and Type 3”, “daily subcutaneously” for “twice a week”, “weeks” for “weeks and 6 weeks respectively”
(§2) In vivo experiments were conducted in heterozygous and homozygous Colla2^oim (Type 1 OI (+/−) and Type 3 OI (−/−)) mice of both genders. After reaching skeletal maturity, 12 weeks old female and/or male mice underwent a stabilized midshaft femur fracture model via an osteotomy. OI mice were subcutaneously treated (with saline control or a compound provided herein, such as Ab46-D-Glu20) twice a week 5 or 6 weeks post fracture. Following a 5-week study in heterozygous mice and 6-week in homozygous mice, fracture callus mineralization/densities were measured using quantification of high resolution MicroCT(scanco) images of the fracture callus.

[2] = tested on: Colla2^oim mouse model of type 1(+/−) OI; experiment: 4-point bend to failure of the fractured femurs, 12 week old type 1 OI mice; details: for increase in max load it takes a bone to fracture as compared to control: fractured femurs, daily subcutaneously 38 nmol/kg/d for 5 weeks, Type 1 OI mice treated (FIG. 18)
Method: (§3) FIGS. 13 and 14 show the impact of treatment with Compound 1 on bone fracture stiffness in a Colla2^oim mouse model of type 3(−/−) and type 1(−/+) osteogenesis Imperfecta. After reaching skeletal maturity, 12 weeks old female mice underwent a stabilized midshaft femur fracture model via an osteotomy and type 1 and Type 3 OI mice were treated twice a week for 5 and 6 weeks respectively post fracture. Fracture strength was evaluated via 4-point bend to failure of the fractured femurs. Modulus evaluates the stiffness of the femur during the biomechanical evaluation. A low stiffness is indicative of brittleness that leads to leads to future fractures. The improvement in stiffness that occurred in the fracture callus are indicative of a healthier bone that is less brittle and will be less likely to fracture in the future. In some instances, low bone stiffness is indicative of brittleness in the bone, such as being associated with higher risk of fracture. In some instances, higher bone stiffness is indicative of healthier bone, such as bone that is less brittle and less prone to fracture. In some instances, the majority of the compound localized into the fracture callus (e.g., due to the large amounts of exposed hydroxyapatite at the fracture site and that DE20 can bind to hydroxyapatite via chelation of the calcium component). In some instances, the elevated sites of resorption throughout the OI type 3 skeleton also had some moderate accumulation (e.g., which was responsible for the non-fracture skeletal improvements observed in FIGS. 13 and 14).
After reaching skeletal maturity, 12 weeks old female mice underwent a stabilized midshaft femur fracture model via an osteotomy. Type 1 and Type 3 OI mice were treated twice a week for 5 weeks and 6 weeks respectively post fracture. Fracture strength was evaluated via 4-point bend to failure of the fractured femurs. The contralateral untreated femurs are presented here to show the restoration to previous non-fracture strength during treatment. […] Further, Compound 1 increases the max load (in Newtons) it takes a bone to fracture in mice with Type 1 OI by approximately 70% (as compared to bone with saline). […]

[3] = tested on: Colla2^oim mouse model of type 1(+/−) OI; experiment: 4-point bend to failure of the non-fractured contralateral femurs, type 1 OI mice
Method: FIGS. 11 and 12 show the impact of treatment with Compound 1 on bone strength in a Colla2^0im mouse model of type!(+/−) OI. 12 week old female mice underwent a stabilized midshaft femur fracture model via an osteotomy. Type 1 OI mice were treated twice a week for 5 weeks post fracture. Bone strength was evaluated via 4-point bend to failure of the non-fractured contralateral femurs. The max load (FIG. 11) evaluates the max load the femur withstood prior to fracture in the biomechanical evaluation. Work to fracture (FIG. 12) evaluates the total amount of energy the femur adsorbed prior to fracture in the biomechanical evaluation. Bone targeted anabolic treatment dramatically improves bone strength in the contralateral femurs.
FIGS. 19 and 20 show the impact of treatment with Compound 3 on bone strength in a Colla2^oim mouse model of type 1(+/−) OI. 12 week old female mice underwent a stabilized midshaft femur fracture model via an osteotomy. Type 1 OI mice were treated daily subcutaneously for 5 weeks post fracture. Bone strength was evaluated via 4-point bend to failure of the non-fractured contralateral femurs. The max load (FIG. 19) evaluates the max load the femur withstood prior to fracture in the biomechanical evaluation. Work to fracture (FIG. 20) evaluates the total amount of energy the femur adsorbed prior to fracture in the biomechanical evaluation. Bone targeted anabolic treatment dramatically improves bone strength in the contralateral femurs.

[4] = tested on: Colla2^oim mouse model of type 3(−/−) OI; experiment: Fracture callus mineralization by MicroCT after stabilized midshaft femur fracture (osteotomy), type 3 OI mice
Method: In some instances, ability of an anabolic linked to a hydroxyapatite ligand to accelerate the repair of fractures in a Type 3 OI disease state was analyzed. Type 3 is the most severe non-lethal form of OI and experiences the most fractures in the human population. In some instances, Type 3 was modeled in a Colla2oim (−/−) mouse (e.g., which is a well-established model of OI Type 3), such as described elsewhere herein (e.g., see the examples). In some instances, the compound is distally administered and accumulates locally at a fracture site.
as §1, with “Type” for “Type 1 and Type”, “week” for “week for 5 weeks and”, “weeks” for “weeks respectively”
as §1, §2

[5] = tested on: Colla2^oim mouse model of type 3(−/−) OI; experiment: 4-point bend to failure of the fractured femurs, type 3 OI mice
Method: (§4) After reaching skeletal maturity, 12 weeks old female mice underwent a stabilized midshaft femur fracture model via an osteotomy. Type 3 OI mice were treated twice a week for 6 weeks post fracture. Fracture strength was evaluated via 4-point bend to failure of the fractured femurs. The max load evaluates the max load the femur withstood prior to fracture in the biomechanical evaluation. The contralateral untreated femurs are presented here to show the restoration to previous non-fracture strength during treatment.
as §4, with “Work to fracture” for “The max load”, “total amount of energy” for “max load”, “adsorbed” for “withstood”
as §3
After reaching skeletal maturity, 12 weeks old female mice underwent a stabilized midshaft femur fracture model via an osteotomy. Type 1 and Type 3 OI mice were treated twice a week for 5 weeks and 6 weeks respectively post fracture. Fracture strength was evaluated via 4-point bend to failure of the fractured femurs. The contralateral untreated femurs are presented here to show the restoration to previous non-fracture strength during treatment. […] Further, Compound 1 increases the max load (in Newtons) it takes a bone to fracture in mice with Type 1 OI by approximately 70% (as compared to bone with saline).

[6] = tested on: Colla2^oim mouse model of type 1(+/−) OI; experiment: 4-point bend to failure of the fractured femurs, 6 week old pediatric type 1 OI mice; details: 6 week old pediatric mice
Method: In some instances, OI affects children from birth and many of the fractures in an individual's life with OI occurring during adolescence. In some embodiments, the individual has pediatric OI. FIGS. 7 and 8 show the impact of treatment with Compound 1 on bone fracture strength in a Colla2^oim mouse model of type 1(+/−) OI. 6 week old pediatric Mice underwent a stabilized midshaft femur fracture model via an osteotomy. Type 1 OI mice were treated twice a week for 4 weeks post fracture. Fracture strength was evaluated via 4-point bend to failure of the fractured femurs. The max load (FIG. 7) evaluates the max load the femur withstood prior to fracture in the biomechanical evaluation. Work to fracture (FIG. 8) evaluates the total amount of energy the femur adsorbed prior to fracture in the biomechanical evaluation.

[7] = 12 weeks old mice, daily subcutaneously 38 nmol/kg/d for 5 weeks (FIG. 17)

AVSEHQLLHDKGKSIQDLIUGTFFLHHLIAEIHTAEnLATSEVSPNSeeeeeeeeeeeeeeeeeeee [Compound 3]
improved fracture callus mineralization as compared to the saline control [1, 7]: approximately 300% | increase in max load it takes a bone to fracture as compared to control [2]: approximately 100% | more max load to fracture than bone in control mice ([3]; contralateral femurs, daily subcutaneously 5 weeks (FIG. 19)): approximately 10% | higher work to fracture, non-fractured bone vs control mice ([3]; non-fractured contralateral femurs, daily subcutaneously 5 weeks (FIG. 20)): approximately 40%

AVSEHQLLHDKGKSIQDLRRRELLEKLLxKLHTAEIRATSEVSPNSeeeeeeeeeeeeeeeeeeee [Compound 1]
radiographic healing over the control ([4]; Colla2oim mouse model): significant improvement | improved fracture callus mineralization as compared to the saline control ([4]; Type 3 OI, 12 weeks old female mice, treated twice a week 6 weeks post fracture (FIG. 1, FIG. 4)): approximately 100% | median microCT images of fractured bones vs saline control ([4]; fractured bones of FIGS. 4 and 5 (Type 1 and Type 3 OI), composite of 20 microCT slices (FIG. 6)): healthier and denser bone | increase in bone volume fraction over the saline groups ([4]; mice administered compound vs saline groups): > 85% | improved fracture callus mineralization as compared to the saline control ([1]; 12 weeks old female mice, treated twice a week 5 weeks post fracture (FIG. 4)): approximately 50% | force required to refracture bone ([5]; Colla2oim mouse model, mechanical testing): dramatically higher force | more stiff (modulus) than fractured bone of control mice ([5]; Type 3 OI, fractured bone, twice a week 6 weeks (FIG. 13)): approximately 100% | increase in max load it takes a bone to fracture as compared to saline bone ([5]; Type 3 OI, fractured femur, twice a week 6 weeks (FIG. 2, FIG. 5)): approximately 300% | increase in work to fracture as compared to bone repaired with saline ([5]; Type 3 OI, fractured femur, twice a week 6 weeks (FIG. 3)): approximately 150% | more stiff (modulus) than non-fractured bone of control mice ([5]; Type 3 OI, treated fractured bone vs non-fractured control bone (FIG. 13)): approximately 50% | increase in work to fracture as compared to non-fractured bone ([5]; Type 3 OI, treated fractured femur vs non-fractured bone (FIG. 3)): approximately 70% | more max load to fracture than fractured bone in control mice ([2]; Type 1 OI, 12 week old female mice, twice a week 5 weeks (FIG. 10)): 80% | more max load to fracture than fractured bone in control mice ([2]; Type 1 OI, 12 week old male mice, twice a week 5 weeks (FIG. 9)): approximately 70% | increase in max load it takes a bone to fracture as compared to bone with saline ([2]; Type 1 OI, 12 weeks old female mice, twice a week 5 weeks (FIG. 5)): approximately 70% | more stiff (modulus) than fractured bone of control mice ([2]; Type 1 OI, fractured bone, twice a week 5 weeks (FIG. 14)): approximately 60% | differential response between sexes (fracture strength) ([2]; Type 1 OI, male vs female mice, twice a week 5 weeks (FIGS. 9, 10)): No differential response between sexes | more stiff (modulus) than unfractured bone of control mice ([2]; Type 1 OI, treated fractured bone vs unfractured control bone (FIG. 14)): approximately 10% | higher max load to fracture than saline control ([6]; twice a week 4 weeks (FIG. 7)): approximately 160% | higher work to fracture than saline control ([6]; twice a week 4 weeks (FIG. 8)): approximately 80% | more max load to fracture, non-fractured bone vs control mice ([3]; non-fractured contralateral femurs, twice a week 5 weeks (FIG. 11)): approximately 30% | higher work to fracture, non-fractured bone vs control mice ([3]; non-fractured contralateral femurs, twice a week 5 weeks (FIG. 12)): approximately 40%

eeeeeeeeee(AEEA)4 DLTIDDSYWYRI (EEEEEEEEEEXDLTIDDSYWYRI; D-Glu targeting ligand, 4 AEEA spacer; SITE 1..10 D-glutamic acid; SITE 11 2,2-amino ethoxy ethoxy acetic acid; REPEAT 11 repeated 4 times) [Compound 4, Ln2_P3 motif with N-terminally-attached 4-mini-PEG spacer and D-glutamic acid targeting ligand]
improved fracture callus mineralization as compared to the saline control [1, 7]: approximately 200% | increase in max load it takes a bone to fracture as compared to control [2]: approximately 200%
